Reference: patent US20080254993A1, “Use of abscisic acid analogs to enhance growth control” (priority 2007, published 2008)

What was measured:
[1] = test system: creeping bentgrass; experiment: Golf course green field study on creeping bentgrass with PBI-702: turfgrass height, soil moisture, turf quality (Example 3); format: in vivo, Penncross creeping bentgrass; details: for Soil moisture / Turfgrass height / Turf quality: 50 ppm PBI-702 alone; for Turf quality: visual 0-9 scale, 9 best
Method: Field studies were conducted at the nursery green or the practice green at Countryside golf course (Mundelein, Ill.). Both greens were sand based and growing Penncross creeping bentgrass. Grass was managed with typical Illinois golf course management practices.
(§1) Chemical solutions were prepared with distilled water. Tween 20 (0.05% v/v) was used as the surfactant when necessary. Trinexapac-ethyl (commercial product Primo Maxx, 11.3% active ingredient) was purchased from Syngenta Crop Protection Inc. (Greensboro, N.C.). ABA analogs, 8′ acetylene-ABA, acid (PBI-524), 8′ acetylene-ABA, ester (PBI-429), 8′ cyclopropane ester (PBI-696), or Tetralone, first carbon tail acetylene, ester (PBI-702), were obtained from Plant Biotechnology Institute, National Research Council of Canada (Saskatoon, Saskatchewan, Canada).
(§2) Chemical solutions were foliar applied to the turfgrass canopy at the rate of 4-gallons/1000 square foot (or 0.163 L/m^−2) immediately after finishing the preparation of solutions. After treatment, turfgrasses were arranged in a randomized complete block experimental design. Turfgrass quality, turfgrass height or clip fresh weight was measured on assigned dates. Turfgrass quality was visually rated on a 0-9 scale based on the color, uniformity, and density of the grass with 0 as the worst and 9 as the best. Turfgrass height was measured as the distance between canopy surface and soil. Clippings were collected form each plot; all plots were cut to a uniform height.
(§3) All experiments were randomized complete block experimental design. Data were analyzed by analysis of variance. Duncan's new multiple range tests at α=0.05 were used for mean separations.
Trinexapac-ethyl (25 ppm) or PBI-702 (50 ppm) were one time foliar applied alone or in combination to creeping bentgrass in the golf course green to investigate their effect on turfgrass quality, growth inhibition and soil moisture.

[2] = test system: Kentucky bluegrass; experiment: Greenhouse study on Kentucky bluegrass: turfgrass height, clip weight, turfgrass quality (Example 1); format: in vivo
Method: Greenhouse studies were conducted at the Research Farm of Valent BioSciences Corporation (Long Grove, Ill.). Grasses were grown in pots (18 cm in diameter and 18 cm in height) filled with Promix BX (available from Premier Horticulture Inc. Quakertown, Pa.). Grass was irrigated daily by an overhead irrigation system. The irrigation system was set up with multiple Tornado Mist Spray Heads (10 GPH at 40 PSI-Wetted diameter, NDS/Raindrip, Woodland Hills, Calif.). Spray heads were 1-meter apart from each other and 75 cm above grass canopy. Grass was cut with a scissor at 2.5 cm height and fertilizer (1 g/L all purpose fertilizer 20-20-20, available from The Scotts Company, Marysville, Ohio) was applied once per week.
as §1, §2, §3
Kentucky bluegrass sod was purchased from Deak sod farms, Inc. (Union Grove, Wis.). Grass was grown in the greenhouse for 94 days for establishment. Turfgrass was treated with one time foliar application of 50 ppm PBI-524, PBI-429, PBI-696 or PBI-702 alone or in combination with 250 ppm trinexapac-ethyl. The turfgrass was cut every 7 days. Turfgrass quality, turfgrass height, and clip weight were measured on days 7 and 35 after treatment.

[3] = 7 days after treatment, 50 ppm ABA analog alone
[4] = 35 days after treatment, 50 ppm ABA analog alone

| SMILES | Soil moisture ([1]; 4 days after treatment) [%] | Turfgrass height ([1]; 4 days after treatment) [mm] | Soil moisture ([1]; 7 days after treatment) [%] | Turfgrass height ([1]; 7 days after treatment) [mm] | Turf quality ([1]; 7 days after treatment) | Reducing growth (in words) ([1]; 7 days after treatment, trinexapac-ethyl 25 ppm, PBI-702 50 ppm, alone or combined) | Soil moisture ([1]; 38 days after treatment) [%] | Turfgrass height ([1]; 38 days after treatment) [mm] | Turf quality ([1]; 38 days after treatment) | Clip Weight [2, 3] [g] | Turfgrass height [2, 3] [cm] | Turfgrass quality ([2]; 7 days after treatment, 50 ppm ABA analog alone, visual 0-9 scale, 9 best) | Turfgrass height and clip weight compared to the control (in words) ([2]; 7 days after treatment, trinexapac-ethyl 250 ppm, PBI-524 or PBI-429 50 ppm, alone or combined) | Clip Weight [2, 4] [g] | Turfgrass height [2, 4] [cm] | Turfgrass height and clip weight (in words) [2, 4] |
| --- | --- | --- | --- | --- | --- | --- | --- | --- | --- | --- | --- | --- | --- | --- | --- | --- |
| COC(=O)/C=C(/C)C#CC1(O)c2ccccc2C(=O)CC1(C)C (stereo not shown) [PBI-702, Tetralone, first carbon tail acetylene, ester] | 12.3 | 6.7 | 11.5 | 6.5 | 7.3 | effective at reducing growth | 12.4 | 5.5 | 7.6 | – | – | – | – | – | – | – |
| C#CC1(C)CC(=O)C=C(C)C1(O)C=CC(C)=CC(=O)O (stereo not shown) [PBI-524, 8′ acetylene-ABA, acid] | – | – | – | – | – | – | – | – | – | 0.5 | 5.8 | 6.6 | reduced turfgrass height and clip weight compared to the control | 1.9 | 8.0 | no longer reduced turfgrass height and clip weight |
